Experimental data taken from patent US6271342A, “Sugar-modified cytostatics” (Bayer Aktiengesellschaft, priority 1995, dated 2001).
Structures can show the parent of a compound that is named as a salt.

Key:
[1] = tested on: HT 29; assay: Growth inhibition test (MTT) for cytotoxic properties; format: cell-based, human
Outline: (§1)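 SW 480 and HT 29 cells in RPMI 1640 with 10% FCS were seeded at 50,000 cells/ml, grown 1 day at 37 °C, then exposed to compound added in DMSO. MTT (5 mg/ml stock) was applied after day 3 and day 6 for 5 h, and formazan absorbance was read at 540 nm. IC50 values reported.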

[2] = tested on: SW 480; assay: as above; format: cell-based, human
Outline: as §1

[3] = Acute toxicity, single administration; format: in vivo, nu/nu naked mice; settings: for acute toxicity detected: dose of 400 mg/kg; for acute toxicity detected / individual dose of the substances which can be tolerated: single administration; for Individual dose tolerated in mg/kg of mouse, i.v.: single administration i.v., aqueous solution; for Individual dose tolerated in mg/kg of mouse, i.p.: single administration i.p., solution in dimethyl sulphoxide
Method: Determination of the Acute Toxicity of Glycoconjugates of Batracyline (Single Administration)
The acute toxicity of the batracyline derivatives was determined on nu/nu naked mice.
The substances administered i.v., as aqueous solutions, and the substances administered i.p., as solutions in dimethyl sulphoxide, were injected once in concentrations of up to 400 mg of substance per kg of mouse.
The individual dose tolerated was calculated from the decrease in the weight of the animals up to 21 days after administration and from the number of animals surviving.

[4] = tested on: B16F10 tumour; assay: In vivo test, survival of mice with transplanted B16F10 tumour; parameters: species or system mouse; settings: 5 mg/kg, treated daily
Method: Mice are inoculated with 5×10^6 B16F10 tumour cells on day 0. The animals in which tumour cells are transplanted develop solid peritoneal tumours and are then treated daily with test substances or with the vehicle control. In the control group, 50% of the animals usually die between day 14 and 20. The test substances are administered in buffer or an organic solvent system comprising 20% methanol and 20% dimethyl sulphoxide in 0.7% sodium chloride solution.
The therapeutic result arises from the prolonging of the survival time of the treated animals. […] A therapeutic index can be estimated from the tolerance and prolonging of the survival time.

[5] = tested on: B 16 F 10; assay: Growth inhibition test (MTT) for cytotoxic properties; format: cell-based, mouse; settings: Table 1b
Method: Growth Inhibition Test for Determination of the Cytotoxic Properties of Glycoconjugates of Batracyline and of Quinolone-a
The human colon cell lines SW 480 and HT 29 (ATCC no. CCL 228 and HBT-38) and the mouse melanoma cell line B 16 F 10 were cultured in Roux dishes in RPMI 1640 medium with addition of 10% FCS. The cultures were then trypsinized and taken up in RPMI plus 10% FCS to a cell count of 50,000 cells/ml. 100 μl of cell suspension/well were introduced into a 96 microwell plate and incubated for 1 day at 37° C. in a CO2 incubating cabinet. A further 100 μl of RPMI medium and 1 μl of dimethyl sulphoxide with the test substances were then added. The growth was checked after day 3 and day 6. 40 μl of MTT solution (3-(4,5-dimethylthiazol-2-yl)-2,5-diphenyltetrazoline bromide) with an initial concentration of 5 mg/ml of H2 O were added to each microwave. The plate was incubated for 5 hours in a CO2 incubating cabinet at 37° C. The medium was then sucked off and 100 μl of i-propanol/well were added. After shaking for 30 minutes with 100 μl of H2 O, the extinction was measured at 540 nm with a Titertek Multiskan MCC/340 (Flow).

[6] = Table 1a, glycoconjugates of batracyline

Molecule: CC(NC(=O)C(N)CCCCNC(=S)Nc1ccc(OC2OC(CO)C(O)C(OCC(=O)[O-])C2O)cc1)C(=O)Nc1ccc2c(c1)CN1C(=O)c3ccccc3C1=N2.[Na+] [Example 3.33, N-{N^ε -[O-(3-O-Carboxymethyl-β-D-galactopyranosyl)-4-hydroxy-phenylamino-thiocarbonyl]-lysyl-D-alanyl}-batracyline, sodium salt]
- IC50 [1, 6]: 70 µM
- IC50 [2, 6]: 90 µM
- acute toxicity detected [3]: no acute toxicity
- individual dose of the substances which can be tolerated [3]: more than 200 mg of substance per kg of mouse
- Individual dose tolerated in mg/kg of mouse, i.v. [3]: > 400 mg/kg of mouse

Molecule: CC(NC(=O)C(CCCCNC(=S)Nc1ccc(OC2OC(CO)C(O)C(OCC(=O)[O-])C2O)cc1)NC(=S)Nc1ccc(OC2OC(CO)C(O)C(OCC(=O)[O-])C2O)cc1)C(=O)Nc1ccc2nc3n(c(=O)c2c1)Cc1ccccc1-3.[Na+].[Na+] [Example 6.81, N-{N^α,N^ε -Bis-[O-(3-O-carboxymethyl-β-D-galactopyranosyl)-4hydroxy-phenylamino-thiocarbonyl]-lysyl-D-alanyl}-batracyline, di-sodium salt]
- IC50 [1, 6]: 30 µM
- IC50 [2, 6]: 30 µM
- acute toxicity detected [3]: no acute toxicity
- individual dose of the substances which can be tolerated [3]: more than 200 mg of substance per kg of mouse
- Individual dose tolerated in mg/kg of mouse, i.v. [3]: > 400 mg/kg of mouse

Molecule: N-{N^α,N^ε -Bis-[O-(β-L-fucosyl)-4-hydroxy-phenylamino-thiocarbonyl]-lysyl-D-ala nyl}-batracyline [Example 6.14]
- acute toxicity detected [3]: no acute toxicity
- individual dose of the substances which can be tolerated [3]: more than 200 mg of substance per kg of mouse
- Individual dose tolerated in mg/kg of mouse, i.p. [3]: > 400 mg/kg of mouse

Molecule: CO[C@H]1[C@H](O)[C@@H](Oc2ccc(Nc3nc(NCCO)nc(NCCCC[C@H](N)C(=O)N[C@H](C)C(=O)Nc4ccc5c(=O)n6c(nc5c4)-c4ccccc4C6)n3)cc2)O[C@@H](C)[C@H]1O.O=C(O)C(F)(F)F [Example 8.2, N-{N^ε -[4-Hydroxyethylamino-2-[O-(3-O-methyl-β-L-fucosyl)-4-hydroxy-phenylamino]-triazin-6-yl]-lysyl-D-alanyl}-batracyline, trifluoroacetate]
- individual dose of the substances which can be tolerated [3]: more than 200 mg of substance per kg of mouse
- Individual dose tolerated in mg/kg of mouse, i.p. [3]: > 200 mg/kg of mouse

Molecule: COc1cc([C@@H]2c3cc4c(cc3[C@@H](O[C@@H]3O[C@@H]5CO[C@@H](C)O[C@H]5[C@H](O)[C@H]3O)[C@H]3COC(=O)[C@H]23)OCO4)cc(OC)c1O [Etoposide, reference compound]
- % survivors Day 0 [4]: 100%
- % survivors Day 20 [4]: 90%
- % survivors Day 25 [4]: 80%
- % survivors Day 30 [4]: 80%
- % survivors Day 35 [4]: 70%

Molecule: CO[C@H]1[C@@H](O)[C@@H](CO)O[C@@H](O[C@H]2[C@H](O)[C@@H](O)[C@H](Oc3ccc(NC(=S)NCCCC[C@@H](NC(=S)Nc4ccc(O[C@@H]5O[C@H](CO)[C@@H](O[C@@H]6O[C@H](CO)[C@H](O)[C@H](OC)[C@H]6O)[C@H](O)[C@H]5O)cc4)C(=O)NC4C=CCC5CN(c6c(F)cc7c(=O)c(C(=O)O)cn(C8CC8)c7c6Cl)CC54)cc3)O[C@@H]2CO)[C@@H]1O (stereo partly drawn) [Example 11.18, N-{N^α,N^ε -Bis-[O-(4-O-(3'-O-methyl-β-D-galactopyranosyl)-β-D-glucopyranosyl)-4-hydroxy-phenylamino-thiocarbonyl]-D-lysyl}-quinolone-a, sodium salt]
- IC50 ([1]; Table 1b): 3.5 µM
- IC50 ([2]; Table 1b): 4.5 µM
- IC50 [5]: 0.5 µM

Molecule: N-{N^ε -[O-(3,4-Di-O-methyl-β-D-galactopyranosyl)-4-hydroxy-phenylamino-thio carbonyl]-lysyl-D-alanyl}-batracyline, trifluoroacetate [Example 3.16]
- individual dose of the substances which can be tolerated [3]: more than 200 mg of substance per kg of mouse
- Individual dose tolerated in mg/kg of mouse, i.p. [3]: > 200 mg/kg of mouse

Molecule: CC1OC(Oc2ccc(NC(=S)NC3C=CCC4CN(c5c(F)cc6c(=O)c(C(=O)O)cn(C7CC7)c6c5Cl)CC43)cc2)C(O)C(OCC(=O)O)C1O (mixture of isomers) [Example 12.12, N-[O-(3-O-Carboxymethyl-β-L-fucosyl)-4hydroxy-phenylamino-thiocarbonyl-quinolone-a, di-sodium salt]
- IC50 ([1]; Table 1b): 13 µM
- IC50 ([2]; Table 1b): 8 µM
- IC50 [5]: 0.5 µM

Molecule: CCC1(OC(=O)C(C)NC(=O)C(CCCCNC(=S)Nc2ccc(OC3OC(C)C(O)C(OC)C3O)cc2)NC(=S)Nc2ccc(OC3OC(C)C(O)C(OC)C3O)cc2)C(=O)OCc2c1cc1n(c2=O)Cc2cc3ccccc3nc2-1 [Example 18.4, 20-O-{N^α,N^ε -Bis-[O-(3-O-methyl-β-L-fucopyranosyl)-4-hydroxy-phenylamino-thiocarbonyl]-lysyl-D-alanyl}-camptothecin]
- IC50 ([1]; Table 1b): 0.02 µM
- IC50 ([2]; Table 1b): 0.02 µM
- IC50 [5]: 0.3 µM

Molecule: N-[Lysyl-D-alanyl]-batracyline, di-trifluoroacetate [Example 2.13]
- Individual dose tolerated in mg/kg of mouse, i.p. [3]: 50 mg/kg of mouse
- Individual dose tolerated in mg/kg of mouse, i.v. [3]: 25 mg/kg of mouse

Molecule: Cc1csc2c(C(=O)O)c(=O)c3cc(F)c(N4CC5C(C)C=CC(NC(=O)C(CCCCN)NC(=S)Nc6ccc(OC7OC(C)C(O)C(OCC(=O)O)C7O)cc6)C5C4)cc3n12 (mixture of isomers) [Example 14.3, N-{N^α -[O-(3-O-Carboxymethyl-β-L-fucosyl)-4-hydroxy-phenylamino-thiocarbonyl]-lysyl}-quinolone-c, di-sodium salt]
- IC50 ([1]; Table 1b): 4 µM
- IC50 ([2]; Table 1b): 8 µM
- IC50 [5]: 4 µM

Molecule: COc1cccc2c1C(=O)c1c(O)c3c(c(O)c1C2=O)CC(O)(C(=O)CO)CC3OC1CC(NC(=O)C(C)NC(=O)C(CCCCNC(=S)Nc2ccc(OC3OC(C)C(O)C(OC)C3O)cc2)NC(=S)Nc2ccc(OC3OC(C)C(O)C(OC)C3O)cc2)C(O)C(C)O1 [Example 17.2, N-{N^α,N^ε -Bis-[O-(3-O-methyl-β-L-fuccopyranosyl)-4-hydroxy-phenylamino-thiocarbonyl]-D-lysyl-alanyl}-doxorubicin]
- IC50 ([1]; Table 1b): 4 µM
- IC50 ([2]; Table 1b): 4 µM
- IC50 [5]: 4 µM

Molecule: COC[C@H]1O[C@@H](Oc2ccc(NC(=S)N[C@@H](CCCCN)C(=O)NC3C=CCC4CN(c5c(F)cc6c(=O)c(C(=O)O)cn(C7CC7)c6c5Cl)CC43)cc2)[C@H](O)[C@@H](OC)[C@H]1O (stereo partly drawn) [Example 12.9, N-{N^α -[O-(3,6-Di-O-methyl-β-D-galactopyranosyl)-4-hydroxy-phenylamino-thiocarbonyl]-lysyl}-quinolone-a, hydrochloride]
- IC50 ([1]; Table 1b): 8 µM
- IC50 ([2]; Table 1b): 4 µM
- IC50 [5]: 2 µM

Molecule: CO[C@H]1[C@H](O)[C@@H](Oc2ccc(NC(=S)NCCCC[C@H](N)C(=O)NC3C=CCC4CN(c5c(F)cc6c(=O)c(C(=O)O)cn(C7CC7)c6c5Cl)CC43)cc2)O[C@@H](C)[C@H]1O (stereo partly drawn) [Example 10.3, N-{N^ε -[O-(3-O-Methyl-β-L-fucosyl)-4-hydroxy-phenylamino-thiocarbonyl]-lysyl}-quinolone-a]
- IC50 ([1]; Table 1b): 4 µM
- IC50 ([2]; Table 1b): 5 µM
- IC50 [5]: 0.7 µM

Molecule: CCC1(OC(=O)C(C)NC(=O)C(CCCCNC(=S)Nc2ccc(OC3OC(C)C(O)C(OC)C3O)cc2)NC(=S)Nc2ccc(OC3OC(C)C(O)C(OC)C3O)cc2)C(=O)OCc2c1cc1n(c2=O)Cc2cc3ccccc3nc2-1 [Example 18.1, 20-O-{N^α,N^ε -Bis-[O-(3-O-methyl-β-L-fucopyranosyl)-4-hydroxy-phenylamino-thiocarbonyl]-lysyl-alanyl}-camptothecin]
- IC50 ([1]; Table 1b): 0.01 µM
- IC50 ([2]; Table 1b): 0.03 µM
- IC50 [5]: 0.2 µM

Molecule: CO[C@H]1[C@H](O)[C@H](Oc2ccc(NC(=S)NCCCC[C@@H](NC(=S)Nc3ccc(O[C@@H]4O[C@@H](C)[C@@H](O)[C@@H](OC)[C@@H]4O)cc3)C(=O)NC3C=CCC4CN(c5c(F)cc6c(=O)c(C(=O)O)cn(C7CC7)c6c5Cl)CC43)cc2)O[C@@H](C)[C@H]1O (stereo partly drawn) [Example 11.10, N-{N^α,N^ε -Bis-[O-(3-O-methyl-α-L-fucosyl)-4hydroxy-phenylamino-thiocarbonyl]-D-lysyl}-quinolone-a]
- IC50 ([1]; Table 1b): 20 µM
- IC50 ([2]; Table 1b): 8 µM
- IC50 [5]: 2 µM
